From patent publication US20120220577A1, “GLYCINE B ANTAGONISTS” (Merz Pharma GmbH & Co KgaA, priority 2009, published 2012)

Biological target: T1, glycine binding pocket of the NMDA receptor (Rattus norvegicus, UniProt P35439)
T1 construct: For isolation of the cell membranes, the cortices are homogenized; from tissue; host or cells: rat cerebral cortex membranes (male Sprague-Dawley)
Experiment: [3H]MDL-105,519 displacement studies (rat cortical membranes)
Conditions: displacement of 2 nM [3H]-MDL-105,519, rat cortical membranes; read-out: NMDA-MDL 105519-r-CTX - IC50
Protocol: Anaesthetised male Sprague-Dawley rats (200-250 g, Janvier, Le Genest-Isle, France) are decapitated and their brains removed rapidly. […] For isolation of the cell membranes, the cortices are homogenized in 20 volumes of ice-cold 0.32 M sucrose (Sigma-Aldrich, Taufkirchen, Germany) using a glass-Teflon homogenizer. The homogenate is centrifuged at 1000×g for 10 minutes, the pellet is discarded and the supernatant centrifuged at 20,000×g for 20 minutes. The resulting pellet is re-suspended in 20 volumes of distilled water and centrifuged for 20 minutes at 8000×g. The supernatant and the buffy coat are then centrifuged three times (48,000×g for 20 minutes) in the presence of 50 mM Tris-HCl, pH 8.0 (assay buffer). All centrifugation steps are carried out at 4° C. After resuspension in 5 volumes of 50 mM Tris-HCl, pH 7.5, the membrane suspension is frozen rapidly at −80° C. On the day of assay, the membranes are thawed and washed four times by resuspension in 50 mM Tris-HCl, pH 7.5, and centrifugation at 48,000×g for 20 minutes. The final pellet is suspended in assay buffer. […] The final protein concentration used for our studies is 400 μg/ml.
A robotic system designed for binding assays (Tecan Deutschland GmbH, Crailsheim, Germany) is loaded with the membrane solution, solutions for bound control (buffer/DMSO 20%), unlabeled glycine (1 mM) for evaluation of non-specific binding, all compounds to be tested (at 20-fold concentrations), radioligand and respective 96-well plates.
The protein/receptor concentration is held constant whereas the amount of specific bound radioligand is determined using increasing concentrations of ligand.
Firstly, the assay plates are loaded with membrane solution and are shaken at 4° C. The mother plates are then prepared by pipetting the compounds into assay buffer/20% DMSO to obtain the desired final concentrations (dose response curve with five different concentrations, e.g. 10, 3, 1, 0.3, and 0.1 μM). After transferring radioligand into the assay plates, the compounds are added (including the bound and the non-specific binding control). The final DMSO concentration is 1%. The assay plates are incubated and shaken at 4° C. for 1 h, before the mixture is exhausted as rapidly as possible via a vacuum manifold using the Multiscreen HTS glass fibre (type B) filter plates (Millipore, Schwalbach, Germany) under a constant vacuum of 450 mbar. The membranes are washed four times with cold assay buffer ([…]). 50 μL of Ultima Gold scintillation cocktail (PerkinElmer, Rodgau-Jügesheim, Germany) is added to the wet filter plates and incubated at room temperature overnight before counting the disintegration per minutes using a liquid scintillation counter (MicroBeta, PerkinElmer, Rodgau-Jügesheim, Germany).
The residual radioactivity after displacement of the test compound (n=5) is then corrected with respect to the set controls.

IC50 [nM] | SMILES
1420 | O=C(O)c1cc(OCC(=O)N2CCCC2C(=O)O)c2c(Cl)cc(Cl)cc2c1 (stereo not shown) [Example 35, 1-[2-(3-Carboxy-6,8-dichloronaphthalen-1-yloxy)-acetyl]-pyrrolidine-2-carboxylic acid]
983 | O=C(COc1cc(C(=O)O)cc2cc(Cl)cc(Cl)c12)N[C@@H](CO)c1ccccc1 [Example 29]
1560 | O=C(COc1cc(C(=O)O)cc2cc(Cl)cc(Cl)c12)NCc1ccccc1OC(F)(F)F [Example 61, 5,7-Dichloro-4-[(2-trifluoromethoxy-benzylcarbamoyl)-methoxy]-naphthalene-2-carboxylic acid]
520 | NC(=O)COc1cccc(NC(=O)COc2cc(C(=O)O)cc3cc(Cl)cc(Cl)c23)c1 [Example 93, 4-[(3-Carbamoylmethoxy-phenylcarbamoyl)-methoxy]-5,7-dichloro-naphthalene-2-carboxylic acid]
935 | O=C(COc1cc(C(=O)O)cc2cc(Cl)cc(Cl)c12)N[C@@H]1C[C@H]1c1ccccc1 (relative stereo) [Example 66, 5,7-Dichloro-4-[(trans-2-phenyl-cyclopropylcarbamoyl)-methoxy]-naphthalene-2-carboxylic acid]
3070 | O=C(O)c1cc(OCC(=O)N2CC(C(=O)O)Oc3ccccc32)c2c(Cl)cc(Cl)cc2c1 (stereo not shown) [Example 43, 4-[2-(3-Carboxy-6,8-dichloronaphthalen-1-yloxy)-acetyl]-3,4-dihydro-2H-benzo[1,4]oxazine-2-carboxylic acid]
499 | O=C(COc1cc(C(=O)O)cc2cc(Cl)cc(Cl)c12)Nc1cccnc1 [Example 127, 5,7-Dichloro-4-(pyridin-3-ylcarbamoylmethoxy)-naphthalene-2-carboxylic acid]
980 | O=C(COc1cc(C(=O)O)cc2cc(Cl)cc(Cl)c12)Nc1ccccn1 [Example 129, 5,7-Dichloro-4-(pyridin-2-ylcarbamoylmethoxy)-naphthalene-2-carboxylic acid]
254 | O=C(COc1cc(C(=O)O)cc2cc(Cl)cc(Cl)c12)NCc1ccccc1OCc1nnn[nH]1 [Example 125, 5,7-Dichloro-4-{[2-(1H-tetrazol-5-ylmethoxy)-benzylcarbamoyl]-methoxy}-naphthalene-2-carboxylic acid]
1260 | O=C(COc1cc(C(=O)O)cc2cc(Cl)cc(Cl)c12)Nc1ccc(-c2nnn[nH]2)cc1 [Example 89, 5,7-Dichloro-4-{[4-(1H-tetrazol-5-yl)-phenylcarbamoyl]-methoxy}-naphthalene-2-carboxylic acid]
1790 | COc1cccc(NC(=O)COc2cc(C(=O)O)cc3cc(Cl)cc(Cl)c23)c1 [Example 6, 5,7-Dichloro-4-[(3-methoxyphenylcarbamoyl)-methoxy]-naphthalene-2-carboxylic acid]
769 | O=C(COc1cc(C(=O)O)cc2cc(Cl)cc(Cl)c12)Nc1ccccc1 [Example 33, 5,7-Dichloro-4-phenylcarbamoylmethoxynaphthalene-2-carboxylic acid]
404 | O=C(COc1cc(C(=O)O)cc2cc(Cl)cc(Cl)c12)Nc1ccc(CO)cc1 [Example 9, 5,7-Dichloro-4-[(4-hydroxymethyl-phenylcarbamoyl)-methoxy]-naphthalene-2-carboxylic acid]
1120 | N#Cc1cccc(NC(=O)COc2cc(C(=O)O)cc3cc(Cl)cc(Cl)c23)c1 [Example 98, 5,7-Dichloro-4-[(3-cyano-phenylcarbamoyl)-methoxy]-naphthalene-2-carboxylic acid]
24 | CNCc1ccc(NC(=O)COc2cc(C(=O)O)cc3cc(Cl)cc(Cl)c23)c(OCC(=O)O)c1 [Example 111, 4-[(2-Carboxymethoxy-4-methylaminomethyl-phenylcarbamoyl)-methoxy]-5,7-dichloro-naphthalene-2-carboxylic acid]
4780 | O=C(O)CC(Cc1ccccc1)NC(=O)COc1cc(C(=O)O)cc2cc(Cl)cc(Cl)c12 (stereo not shown) [Example 37, 4-[(1-Carboxymethyl-2-phenylethylcarbamoyl)-methoxy]-5,7-dichloronaphthalene-2-carboxylic acid]
297 | CNC(=O)COc1cc(CN)ccc1NC(=O)COc1cc(C(=O)O)cc2cc(Cl)cc(Cl)c12 [Example 116, 4-[(4-Aminomethyl-2-methylcarbamoylmethoxy-phenylcarbamoyl)-methoxy]-5,7-dichloro-naphthalene-2-carboxylic acid]
637 | N#CCc1ccc(NC(=O)COc2cc(C(=O)O)cc3cc(Cl)cc(Cl)c23)cc1 [Example 112, 5,7-Dichloro-4-[(4-cyanomethyl-phenylcarbamoyl)-methoxy]-naphthalene-2-carboxylic acid]
134 | CN(C)C(=O)COc1ccccc1NC(=O)COc1cc(C(=O)O)cc2cc(Cl)cc(Cl)c12 [Example 102, 5,7-Dichloro-4-[(2-dimethylcarbamoylmethoxy-phenylcarbamoyl)-methoxy]-naphthalene-2-carboxylic acid]
1940 | N#Cc1ccc(CNC(=O)COc2cc(C(=O)O)cc3cc(Cl)cc(Cl)c23)cc1 [Example 117, 5,7-Dichloro-4-[(4-cyano-benzylcarbamoyl)-methoxy]-naphthalene-2-carboxylic acid]
7 | O=C(COc1cc(C(=O)O)cc2cc(Cl)cc(Cl)c12)Nc1cccc2cc(C(=O)O)oc12 [Example 115, 7-[2-(3-Carboxy-6,8-dichloro-naphthalen-1-yloxy)-acetylamino]-benzofuran-2-carboxylic acid]
351 | O=C(COc1cc(C(=O)O)cc2cc(Cl)cc(Cl)c12)Nc1cccc(CO)c1 [Example 10, 5,7-Dichloro-4-[(3-hydroxymethylphenylcarbamoyl)-methoxy]-naphthalene-2-carboxylic acid]
428 | O=C(COc1cc(C(=O)O)cc2cc(Cl)cc(Cl)c12)Nc1cccc(CO)c1OCCO [Example 124, 5,7-Dichloro-4-{[2-(2-hydroxy-ethoxy)-3-hydroxymethyl-phenylcarbamoyl]-methoxy}-naphthalene-2-carboxylic acid]
4270 | COC(=O)c1ccccc1NC(=O)COc1cc(C(=O)O)cc2cc(Cl)cc(Cl)c12 [Example 45, 5,7-Dichloro-4-[(2-methoxycarbonyl-phenylcarbamoyl)-methoxy]-naphthalene-2-carboxylic acid]
1220 | COc1cccc(CO)c1NC(=O)COc1cc(C(=O)O)cc2cc(Cl)cc(Cl)c12 [Example 76, 5,7-Dichloro-4-[(2-hydroxymethyl-6-methoxy-phenylcarbamoyl)-methoxy]-naphthalene-2-carboxylic acid]
113 | CN(C)C(=O)COc1cc(CN)ccc1NC(=O)COc1cc(C(=O)O)cc2cc(Cl)cc(Cl)c12 [Example 123, 4-[(4-Aminomethyl-2-dimethylcarbamoylmethoxy-phenylcarbamoyl)-methoxy]-5,7-dichloronaphthalene-2-carboxylic acid]
6740 | COc1ccc(C(=O)COc2cc(C(=O)O)cc3cc(Cl)cc(Cl)c23)cc1 [Example 4, 5,7-Dichloro-4-[2-(4-methoxyphenyl)-2-oxo-ethoxy]-naphthalene-2-carboxylic acid]
324 | CN(C)CCOc1ccc(NC(=O)COc2cc(C(=O)O)cc3cc(Cl)cc(Cl)c23)cc1CO [Example 87, 5,7-Dichloro-4-{[4-(2-dimethylamino-ethoxy)-3-hydroxymethyl-phenylcarbamoyl]-methoxy}-naphthalene-2-carboxylic acid]
3390 | O=C(O)COc1ccc(NC(=O)COc2cc(C(=O)O)cc3cc(Cl)cc(Cl)c23)cc1 [Example 44, 4-[(4-Carboxymethoxy-phenylcarbamoyl)-methoxy]-5,7-dichloro-naphthalene-2-carboxylic acid]
3580 | CN(C(=O)COc1cc(C(=O)O)cc2cc(Cl)cc(Cl)c12)c1cccc(CC(=O)O)c1 [Example 40, 4-{[(3-Carboxymethylphenyl)-methyl-carbamoyl]-methoxy}-5,7-dichloronaphthalene-2-carboxylic acid]

SMILES | IC50 [nM]
CN(C)CCN(C)C(=O)COc1ccccc1NC(=O)COc1cc(C(=O)O)cc2cc(Cl)cc(Cl)c12 [Example 110, 5,7-Dichloro-4-[(2-{[(2-dimethylamino-ethyl)-methyl-carbamoyl]-methoxy}-phenylcarbamoyl)-methoxy]-napthalene-2-carboxylic acid] | 1310
